Marks after values point to notes of the source that are not given here.
How the values were obtained:
[1] = system: normal male C57BL6/J mice; assay: In vivo hypoglycemia risk assay in fasted normal C57BL6/J mice; conditions: for Blood Glucose / AUC 0-120 minutes: fasted 16 hours; for AUC 0-120 minutes: blood glucose AUC
Experimental: The blank control group was orally administered with the vehicle control (2% DMO + 15% solutol + 83% DDW solution), with a dosing volume of 10 mL/kg. […] […] Data were expressed as mean ± standard deviation. One-way ANOVA was employed for statistical analysis, with p < 0.05 considered statistically significant.

normal C57BL6/J mice = assay: Oral glucose tolerance test (OGTT) in normal C57BL6/J mice; format: in vivo; conditions: 1 mg/kg gavage, single dose; for AUC 0-120 minutes: blood glucose AUC
Experimental: Eighteen normal male C57BL6/J mice (8-9 weeks old) were selected and randomly divided into 3 groups based on body weight and blood glucose levels, with 6 mice in each group. On the day of the OGTT, fasting was initiated at 8:30 AM. At 11:30 AM, drug interventions were administered via gavage (vehicle control, compound 14, 1 mg/kg, and compound 169, 1 mg/kg). At 1:30 PM, glucose (2 g/kg) was administered via gavage, while the blank control group received the vehicle control orally (2% DMSO + 15% solutol + 83% DDW solution) at a dosing volume of 10 mL/kg. Blood glucose measurements during the OGTT were taken at the following time points: 0, 15, 30, 60, 90, and 120 minutes after glucose administration.
Blood glucose levels were measured at 0, 15, 30, 60, and 120 minutes after glucose administration. The area under the curve (AUC) for blood glucose over 120 minutes was calculated. [formula]
(§1) Note: BG0, BG15, BG30, BG60, BG90, and BG120 represent the blood glucose levels at 0, 15, 30, 60, 90, and 120 minutes after glucose administration, respectively.
(§2) Data were expressed as mean ± standard deviation. One-way ANOVA was employed for statistical analysis, with p < 0.05 considered statistically significant.

[2] = system: high-fat diet-induced DIO mice; assay: Oral glucose tolerance test (OGTT) in high-fat diet-induced DIO mice; format: in vivo
Excerpt: Normal male C57BL6/J mice (8-9 weeks old) were housed 3-4 per cage and fed a high-fat, high-cholesterol, high-fructose diet (D09100310, Research Diets) for 13 weeks with unrestricted access to water. After 13 weeks of high-fat, high-cholesterol, high-fructose diet feeding, the mice were randomly divided into 5 groups based on body weight and blood glucose levels, with age-matched mice fed a normal diet serving as the normal blank control group, with 6 mice in each group. Under fasting conditions (16 hours), the test compound 169 was administered via oral gavage at different concentrations of 0.03, 0.1, 0.6, and 3 mg/kg, while the normal blank control and model control groups were given the vehicle (15% solutol + 85% DDW solution), with a dosing volume of 10 mL/kg. On the day of administration, blood glucose levels in mice were measured. 2 hours after oral gavage administration, each group was given 2 g/kg of glucose orally. Blood glucose levels were measured at 0, 15, 30, 60, 90, 120, and 150 minutes after glucose administration.
Blood glucose levels were measured at 0, 15, 30, 60, and 120 minutes after glucose administration. […]
as §1, §2

C57BL6/J mice = assay: In vivo pharmacodynamic assay for non-alcoholic fatty liver disease (high-fat, high-cholesterol, high-fructose diet mice); conditions: for Hepatic Hydroxyproline / Total Liver Hydroxyproline (µg/liver): liver; for ALT (U/L) / AST (U/L): serum
Experimental: Normal male C57BL6/J mice ([…]) were fed a high-fat, high-cholesterol, high-fructose diet (D09100310, Research Diets) for 20 weeks. Based on body weight and biochemical data, the mice were randomly divided into groups, with 6 mice per group. The compound 169 (0.03, 0.1, and 0.6 mg/kg) was administered via oral gavage. The positive control was MGL3196 (1 mg/kg), and the blank control group consisted of mice of the same strain and age fed a normal diet for the same duration. The blank control and model control groups were given the vehicle (15% solutol + 85% DDW), totaling 6 groups. Administration was performed once daily for 28 days. After overnight fasting, on day 29 at the experimental endpoint, blood was collected from the heart after CO2 euthanasia. Serum ALT and AST biochemical indicators were measured, and liver tissue was harvested for hepatic hydroxyproline content determination.
Blood was collected using anticoagulant-free tubes, allowed to stand at room temperature for 30 minutes, and then centrifuged at 4000 rpm for 10 minutes to separate serum, which was tested by Dian Diagnostics. Approximately 50 mg of liver tissue was taken from each mouse and tested according to the hydroxyproline assay kit method (Nanjing Jiancheng, Cat. No.: A030-2-1).
as §2

[3] = 0.03 mpk oral gavage once daily for 28 days
[4] = 0.1 mpk oral gavage once daily for 28 days
[5] = 0.6 mpk oral gavage once daily for 28 days

Compound: COc1ccc(F)c(N2CCC(c3oc4cc([C@@H](CC(=O)O)C5CC5)ccc4c3-c3ccc(C(C)(C)C)cc3)CC2)c1 [Compound 169]
- Blood Glucose ([1]; 3 mg/kg oral, 0 minutes after administration): 4.3 ± 0.59 mmol/L
- Blood Glucose ([1]; 3 mg/kg oral, 30 minutes after administration): 5.42 ± 0.56 mmol/L
- Blood Glucose ([1]; 3 mg/kg oral, 60 minutes after administration): 4.73 ± 0.82 mmol/L
- Blood Glucose ([1]; 3 mg/kg oral, 120 minutes after administration): 4.1 ± 0.51 mmol/L
- Blood Glucose ([1]; 10 mg/kg oral, 0 minutes after administration): 4.65 ± 0.75 mmol/L
- Blood Glucose ([1]; 10 mg/kg oral, 30 minutes after administration): 6.1 ± 1.01 mmol/L
- Blood Glucose ([1]; 10 mg/kg oral, 60 minutes after administration): 4.92 ± 1.01 mmol/L
- Blood Glucose ([1]; 10 mg/kg oral, 120 minutes after administration): 4 ± 0.87 mmol/L
- AUC 0-120 minutes ([1]; 3 mg/kg oral): 563 ± 34.91 mmol·min
- AUC 0-120 minutes ([1]; 10 mg/kg oral): 594 ± 49.00 mmol·min
- risk of hypoglycemia ([1]; judged from AUC0-120 min versus blank control, Glibenclamide 10 mg/kg, compound 169 at 3 mg/kg and 10 mg/kg): no risk of hypoglycemia
- Blood Glucose (normal C57BL6/J mice; 0 minutes after glucose (2 g/kg)): 7.88 ± 0.62 mmol/L
- Blood Glucose (normal C57BL6/J mice; 15 minutes after glucose (2 g/kg)): 12.78 ± 1.65 mmol/L
- Blood Glucose (normal C57BL6/J mice; 30 minutes after glucose (2 g/kg)): 9.28 ± 1.32 mmol/L
- Blood Glucose (normal C57BL6/J mice; 60 minutes after glucose (2 g/kg)): 9.28 ± 1.32 mmol/L
- Blood Glucose (normal C57BL6/J mice; 90 minutes after glucose (2 g/kg)): 7.67 ± 2.31 mmol/L
- Blood Glucose (normal C57BL6/J mice; 120 minutes after glucose (2 g/kg)): 7.13 ± 1.25 mmol/L
- AUC 0-120 minutes (normal C57BL6/J mice; 1 mg/kg): 1075±66.01
- AUC 0-120 minutes (normal C57BL6/J mice; listed as compound 169, 1 mg/kg): significantly reduced
- Blood Glucose ([2]; 0.03 mg/kg oral gavage, 0 minutes after glucose (2 g/kg)): 10.78 ± 0.81 mmol/L
- Blood Glucose ([2]; 0.03 mg/kg oral gavage, 15 minutes after glucose): 20.08 ± 2.94 mmol/L
- Blood Glucose ([2]; 0.03 mg/kg oral gavage, 30 minutes after glucose): 16.63 ± 3.66 mmol/L
- Blood Glucose ([2]; 0.03 mg/kg oral gavage, 60 minutes after glucose): 14.62 ± 3.62 mmol/L
- Blood Glucose ([2]; 0.03 mg/kg oral gavage, 90 minutes after glucose): 14.92 ± 2.34 mmol/L
- Blood Glucose ([2]; 0.03 mg/kg oral gavage, 150 minutes after glucose): 10.75 ± 1.1 mmol/L
- Blood Glucose ([2]; 0.1 mg/kg oral gavage, 0 minutes after glucose (2 g/kg)): 9.28 ± 2.89 mmol/L
- Blood Glucose ([2]; 0.1 mg/kg oral gavage, 15 minutes after glucose): 17.65 ± 2.09 mmol/L
- Blood Glucose ([2]; 0.1 mg/kg oral gavage, 30 minutes after glucose): 18.67 ± 4.11 mmol/L
- Blood Glucose ([2]; 0.1 mg/kg oral gavage, 60 minutes after glucose): 13.53 ± 3.03 mmol/L
- Blood Glucose ([2]; 0.1 mg/kg oral gavage, 90 minutes after glucose): 10.27 ± 1.68 mmol/L
- Blood Glucose ([2]; 0.1 mg/kg oral gavage, 120 minutes after glucose): 10.05 ± 1.47 mmol/L
- Blood Glucose ([2]; 0.1 mg/kg oral gavage, 150 minutes after glucose): 10.17 ± 1.68 mmol/L
- Blood Glucose ([2]; 0.6 mg/kg oral gavage, 0 minutes after glucose (2 g/kg)): 9.57 ± 2.06 mmol/L
- Blood Glucose (mmol/L) ([2]; 0.6 mg/kg oral gavage, 15 minutes after glucose): 16.48± 2.15** * mmol/L
- Blood Glucose ([2]; 0.6 mg/kg oral gavage, 30 minutes after glucose): 12.97 ± 3.71 mmol/L
- Blood Glucose ([2]; 0.6 mg/kg oral gavage, 60 minutes after glucose): 11.98 ± 2.95 mmol/L
- Blood Glucose ([2]; 0.6 mg/kg oral gavage, 90 minutes after glucose): 11.27 ± 2.66 mmol/L
- Blood Glucose ([2]; 0.6 mg/kg oral gavage, 120 minutes after glucose): 9.12 ± 2.14 mmol/L
- Blood Glucose ([2]; 0.6 mg/kg oral gavage, 150 minutes after glucose): 9.52 ± 1.62 mmol/L
- Blood Glucose ([2]; 3 mg/kg oral gavage, 0 minutes after glucose (2 g/kg)): 13.02 ± 2.46 mmol/L
- Blood Glucose ([2]; 3 mg/kg oral gavage, 15 minutes after glucose): 17.22 ± 2.02 mmol/L
- Blood Glucose ([2]; 3 mg/kg oral gavage, 30 minutes after glucose): 14 ± 3.49 mmol/L
- Blood Glucose ([2]; 3 mg/kg oral gavage, 60 minutes after glucose): 10.52 ± 2.23 mmol/L
- Blood Glucose ([2]; 3 mg/kg oral gavage, 90 minutes after glucose): 9.88 ± 0.85 mmol/L
- Blood Glucose ([2]; 3 mg/kg oral gavage, 120 minutes after glucose): 8.3 ± 1.63 mmol/L
- Blood Glucose (mmol/L) ([2]; 3 mg/kg oral gavage, 150 minutes after glucose): 7.37±1.44* * mmol/L
- AUC0-150 min ([2]; blood glucose AUC, 0.03 mg/kg oral gavage): 2194 ± 132.70 mmol·min
- AUC0-150 min (mmol*min) ([2]; blood glucose AUC, 0.1 mg/kg oral gavage, 0.1 mg/kg): significantly reduced
- AUC0-150 min (mmol*min) ([2]; blood glucose AUC, 0.6 mg/kg oral gavage, 0.6 mg/kg): 1725± 119.90 **** mmol*min
- AUC0-150 min (mmol*min) ([2]; blood glucose AUC, 0.6 mg/kg oral gavage, listed as compound 169, 0.6 mg/kg): significantly reduced
- AUC0-150 min (mmol*min) ([2]; blood glucose AUC, 3 mg/kg oral gavage, 3 mg/kg): 1642±91.83 **** mmol*min
- AUC0-150 min (mmol*min) ([2]; blood glucose AUC, 3 mg/kg oral gavage, listed as compound 169, 3 mg/kg): significantly reduced
- Hepatic Hydroxyproline (C57BL6/J mice; [3]): 128.06 ± 55.18 µg/g
- Total Liver Hydroxyproline (µg/liver) (C57BL6/J mice; [3]): 308.56±121.44 µg/liver
- ALT (U/L) (C57BL6/J mice; [3]): 148±81.95 U/L
- AST (U/L) (C57BL6/J mice; [3]): 204.5±79.09 U/L
- Hepatic Hydroxyproline (C57BL6/J mice; [4]): 119.16 ± 39.65 µg/g
- Total Liver Hydroxyproline (µg/liver) (C57BL6/J mice; [4]): 266.4±80.67 µg/liver
- ALT (U/L) (C57BL6/J mice; [4]): 110±37.12 U/L
- AST (U/L) (C57BL6/J mice; [4]): 156±30.59 U/L
- Hepatic Hydroxyproline (C57BL6/J mice; [5]): 85.24 ± 47.63 µg/g
- Total Liver Hydroxyproline (µg/liver) (C57BL6/J mice; [5]): 187.94±110.56 µg/liver
- ALT (U/L) (C57BL6/J mice; [5]): 103.8±35.53 U/L
- AST (U/L) (C57BL6/J mice; [5]): 163.2±42.98 U/L
- liver protection and liver fibrosis inhibition effects (C57BL6/J mice; doses of 0.03, 0.1, and 0.6 mg/kg, compared with the model control): reduced ALT, AST, and liver hydroxyproline levels

Reference: patent EP4682145A1, “BENZOHETEROCYCLIC COMPOUND, AND PREPARATION METHOD THEREFOR AND USE THEREOF” (Cascade Pharmaceuticals, Inc., priority 2023, dated 2024)
